pIC50, pKd, pKi: −log10 of the molar value. The source made the active and inactive calls. The rule behind the calls is not given here.
Tests used:
[1] = Inhibition of MBNL1 binding to r(CUG)12 RNA sequence (unknown origin) assessed as inhibition constant by gel electrophoresis mobility shift assay
[2] = Binding affinity to r(CUG)12 RNA sequence (unknown origin) assessed as equilibrium dissociation constant by isothermal titration method
[3] = Binding affinity to d(CTG) duplex DNA sequence (unknown origin) assessed as equilibrium dissociation constant by isothermal titration method
[4] = Binding affinity to d(CTG) T-T DNA sequence (unknown origin) assessed as equilibrium dissociation constant by isothermal titration method; conditions: read-out: Kd(app)
[5] = Binding affinity to d(CTG) A-A DNA sequence (unknown origin) assessed as equilibrium dissociation constant by isothermal titration method
[6] = Binding affinity to d(CTG) C-C DNA sequence (unknown origin) assessed as equilibrium dissociation constant by isothermal titration method; conditions: for pKd: read-out: Kd(app)
[7] = Binding affinity to d(CTG) U-U DNA sequence (unknown origin) assessed as equilibrium dissociation constant by isothermal titration method
HeLa [8] = experiment: Cytotoxicity against human HeLa cells assessed as reduction in cell viability after 72 hrs by SRB assay relative to control; format: cell-based
[9] = Inhibition of d(CTG.CAG)74 DNA sequence (unknown origin) transcription at 25 uM pre-incubated for 3 hrs followed by addition of T7 polymerase and measured after 1.5 hrs by PAGE analysis
[10] = Potency index, ratio of transcription inhibition of NC to transcription inhibition of compounds for d(CTG.CAG)74 DNA sequence by PAGE analysis
[11] = Selectivity ratio of cytotoxicity of compound to cytotoxicity of NC for human HeLa cells; format: cell-based
[12] = Selectivity ratio of transcription inhibition of random DNA sequence (unknown origin) to transcription inhibition of d(CTG.CAG)74 DNA sequence (unknown origin) by PAGE analysis
DNA [13] = experiment: Inhibition of random DNA sequence (unknown origin) transcription at 50 uM pre-incubated for 3 hrs followed by addition of T7 polymerase and measured after 1.5 hrs by PAGE analysis; format: nucleic-acid assay
HeLa [14] = experiment: Cytotoxicity against human HeLa cells assessed as reduction in cell viability at 0.2 to 100 uM after 72 hrs by SRB assay relative to control; format: cell-based
[15] = Binding affinity to d(CTG)2 DNA sequence (unknown origin) assessed as equilibrium dissociation constant by isothermal titration method
[16] = Binding affinity to r(CUG)4 RNA sequence (unknown origin) assessed as equilibrium dissociation constant by isothermal titration method
DNA [17] = experiment: Inhibition of random DNA sequence (unknown origin) transcription at 25 uM pre-incubated for 3 hrs followed by addition of T7 polymerase and measured after 1.5 hrs by PAGE analysis; format: nucleic-acid assay
DNA [18] = experiment: Inhibition of random DNA sequence (unknown origin) transcription at 0 to 50 uM pre-incubated for 3 hrs followed by addition of T7 polymerase and measured after 1.5 hrs by PAGE analysis; format: nucleic-acid assay
DNA [19] = experiment: Inhibition of random DNA sequence (unknown origin) transcription at 100 uM pre-incubated for 3 hrs followed by addition of T7 polymerase and measured after 1.5 hrs by PAGE analysis; format: nucleic-acid assay
HeLa [20] = experiment: Cytotoxicity against human HeLa cells assessed as reduction in cell viability at 6 uM after 72 hrs by SRB assay relative to control; format: cell-based
[21] = Inhibition of d(CTG.CAG)74 DNA sequence (unknown origin) transcription at 6 uM pre-incubated for 3 hrs followed by addition of T7 polymerase and measured after 1.5 hrs by PAGE analysis
[22] = Binding affinity to d(CTG) T-T DNA sequence (unknown origin) assessed as mole fraction of compound required to show 2:1 stoichiometry for compound-DNA complex at 50 uM by Job's plot analysis
[23] = Binding affinity to d(CTG) T-T 2 DNA sequence (unknown origin) assessed as equilibrium dissociation constant by isothermal titration method
[24] = Binding affinity to d(CTG) T-T 3 DNA sequence (unknown origin) assessed as equilibrium dissociation constant by isothermal titration method
HeLa [25] = experiment: Cytotoxicity against human HeLa cells assessed as reduction in cell viability at 25 uM after 72 hrs by SRB assay relative to control; format: cell-based
[26] = Binding affinity to d(CTG) T-T DNA sequence (unknown origin) assessed as mole fraction of compound required to show 1:1 stoichiometry for compound-DNA complex at 50 uM by Job's plot analysis
[27] = Binding affinity to d(CTG) T-T DNA sequence (unknown origin) assessed as mole fraction of compound required to show 1.3:1 stoichiometry for compound-DNA complex at 50 uM by Job's plot analysis
[28] = Displacement of ethidium from d(CTG)2 DNA sequence (unknown origin) and measured by fluorescence method relative to NC

SMILES | Kd(app) [3] | pKd [4] | Kd(app) [5] | Kd(app) [7] | inhibition [9] | Selectivity ratio [10] | Selectivity ratio [12] | selectivity ratio [11] | Activity (HeLa [14]) | other results
N=C(NCCCCNc1nc(N)nc(N)n1)c1ccc(C(=N)NCCCCNc2nc(N)nc(N)n2)cc1 |  |  |  |  |  |  |  |  |  | pKi [1]: 5.10; pKi [2]: 5.10
Nc1nc2nc(n1)NCCCCCNc1c3ccccc3nc3c(cccc13)C(=O)NCCCCCN2 |  |  |  |  |  |  |  | 10 | Toxic | 
COc1ccc2nc3cc(Cl)ccc3c(NCCCCNc3nc(N)nc(N)n3)c2c1 |  |  |  |  |  |  |  |  |  | pKd [15]: 6.40 to 6.52; pKd [16]: 6.40 to 6.52; pKi [1]: 5.22

Further lines, with some results ahead:

Kd(app) [3] | pKd [4] | Kd(app) [5] | Kd(app) [7] | inhibition [9] | Selectivity ratio [10] | Selectivity ratio [12] | SMILES | selectivity ratio [11] | Activity (HeLa [14]) | other results
inactive | 4.46 | inactive | inactive | 60% | 4 | 3 | Nc1nc2nc(n1)NCCCNc1c3ccccc3nc3c(cccc13)C(=O)NCCCCN2 | 10 |  | pKd [6]: 3.39; pIC50 (HeLa [8]): < 4.00; inhibition (DNA [13]): 45%
 | 5.24 |  |  | 35% |  | 3 | CNC(=O)c1cccc2c(NCCCCNc3nc(N)nc(N)n3)c3ccccc3nc12 |  |  | pKd ([3]; read-out: Kd(app)): 4.16; pKd [6]: 3.80; pKd ([7]; read-out: Kd(app)): 4.75; inhibition (DNA [13]): 45%
 |  |  |  |  |  | 3 | Nc1nc2nc(n1)NCCCCNc1c3ccccc3nc3c(cccc13)C(=O)NCCCCN2 | 10 | Toxic | 
inactive | 4.70 | inactive | inactive | 85% | 4 |  | Nc1nc2nc(n1)NCCCNC(=O)c1cccc3c(c4ccccc4nc13)NCCCCN2 | 10 | Toxic | Kd(app) [6]: inactive; pIC50 (HeLa [8]): 4.70; inhibition (DNA [17]): -0%; inhibition (DNA [18]): < 10%; inhibition (DNA [19]): < 20%; Activity (HeLa [20]): < 10%; inhibition [21]: 45%
inactive | 4.74 | inactive | inactive | 60% | 4 | 3 | Nc1nc2nc(n1)NCCCNc1c3ccccc3nc3c(cccc13)C(=O)NCCCN2 | 10 |  | Activity (mole fraction) [22]: 0.68; pKd [23]: 4.70; Kd(app) [6]: inactive; pKd [24]: 4.82; Activity (HeLa [25]): Non-Toxic; inhibition (DNA [19]): 45%; Activity (mole fraction) [26]: 0.5; Activity (mole fraction) [27]: 0.57; Activity [28]: Active
